Laboratory results taken from patent publication US12466849B2, “Anti-viral and anti-tumoral compounds” (YEDA RESEARCH AND DEVELOPMENT CO. LTD, priority 2020, dated 2025).
Converted amounts (≈) assume the structure as drawn.

Experiments:
[1] = molecular target: T1, SARS-Cov2 RdRp (nsp12-nsp7-nsp8) (Severe acute respiratory syndrome coronavirus 2, UniProt P0DTD1); type: biochemical; details: primer extension; analog at 100 uM, printed 100 mM
in vitro [2] = details: male, SD, rat, plasma
[3] = system: Human cytomegalovirus (HCMV), strain AD169; details: for EC50 / EC90: drug concentration 0.048-150 μM
HCMV AD169 = test: HCMV plaque reduction assay, MRC-5 cells, strain AD169; type: cell-based, Human cytomegalovirus; details: hCMV AD169, MRC5 cells, plaque assay, 6-days duration
in vitro [4] = details: both, human, plasma
[5] = molecular target: T1, SARS-Cov2 RdRp (nsp12-nsp7-nsp8); type: biochemical; details: after addition of GTP and CTP (third and fourth nucleotides)
[6] = system: respiratory syncytial virus (RSV, A2); details: for SI50 (SI): RSV, SI = CC50/EC50
[7] = system: Rift Valley fever virus (RVFV)
[8] = system: influenza/California/07/2009 (H1N1)pdm09; details: for SI50 (SI): Influenza(H1N1), SI = CC50/EC50
[9] = system: Tacaribe virus (TCRV, TRVL-11573); set-up: SI50 (SI): unit not given beside the values
[10] = system: Influenza B/Florida/4/2006 (Yamagata); details: for SI50 (SI): Influenza B, SI = CC50/EC50
[11] = system: Epstein-Barr virus (EBV), Akata strain; set-up: SI50 / SI90: unit not given beside the values
[12] = system: BK virus (BKV), Gardner strain; set-up: SI50 / SI90: unit not given beside the values
[13] = system: enterovirus-68 (EV-68, US/DY/14-18953); details: for SI50 (SI): EV-68, SI = CC50/EC50
[14] = system: SARS-CoV-2 (USA-WA1/2020); details: for SI50 (SI): SARS-CoV-2, SI = CC50/EC50
[15] = system: dengue virus-2 (DENV-2, New Guinea C); details: SI = CC50/EC50
MERS-CoV (EMC) = type: cell-based; details: SI = CC50/EC50

## Nc1ccn([C@H]2CC[C@@H](CO)O2)c(=O)n1 [2-3 Dideoxycytidine]
adenovirus-5 (Ad5)
  CC50: >100 µg/mL
  EQ50: 1.8 µg/mL
  SI: >56

## O=c1ccn([C@@H]2O[C@H](COP(=O)(O)OP(=O)(O)OP(=O)(O)O)C[C@H]2O)c(=O)[nH]1 [3′-dUTP, 3′-deoxyuracil triphosphate, reference compound]
[1]
  incorporation into RNA by SARS-Cov2 RdRp (in words): same level of incorporation as ddhUTP

## COc1ccc([C@@H]2Sc3ccccc3N(CCN(C)C)C(=O)[C@@H]2OC(C)=O)cc1 [Diltiazem]
In vitro [2]
  half-life at 0.75 µM: 2.08 h

## Nc1nc2c(ncn2COC(CO)CO)c(=O)[nH]1 [GCV]
[3]
  CC50: > 150 µM
  EC50: 0.19 µM
  EC90: > 150 µM

## Nc1nc2c(ncn2COC(CO)CO)c(=O)[nH]1 [Ganciclovir, reference compound]
HCMV AD169
  EC50: 7.36 µM

## C#C[C@@]1(O)[C@H](O)[C@@H](CO)O[C@H]1n1ccc2c(N)ncnc21 [NITD008, reference compound]
Zika virus
  CC50: 44 µg/mL (≈ 0.152 mM)
  EQ50: 1.8 µg/mL
  SI: 24

## CC(C)[N+](C)(CCOC(=O)C1c2ccccc2Oc2ccccc21)C(C)C [Propantheline]
In vitro [4]
  half-life at 0.75 µM: 0.28 h

## N#C[C@@]1(c2ccc3c(N)ncnn23)O[C@H](COP(=O)(O)OP(=O)(O)OP(=O)(O)O)[C@@H](O)[C@H]1O [REM-TP, Remdesivir-TP, reference compound]
[5]
  chain termination of RNA synthesis (in words): did not cause chain termination
[1]
  incorporation into RNA by SARS-Cov2 RdRp (in words): incorporated into RNA as ATP analogs

## NC(=O)c1ncn([C@@H]2O[C@H](CO)[C@@H](O)[C@H]2O)n1 [Ribavirin, Ribavirin (Virazole), reference compound]
RSV
  CC50: 42 µg/mL (≈ 0.172 mM)
  EQ50: 7.3 µg/mL
  SI: 5.8
Influenza A(H1N1)
  CC50: >1000 µg/mL
  EQ50: 4.6 µg/mL
  SI: >220
Influenza A(H5N1)
  SI: >560
Influenza A(H5N1); MDCK cells without virus, positive control
  CC50: >1000 µg/mL
Influenza A(H5N1); influenza A(H5N1), MDCK cells, positive control
  EQ50: 1.8 µg/mL
[6]
  CC50: 310 µg/mL
  SI50 (SI): 16
Influenza B
  CC50: >1000 µg/mL
  EQ50: 1.4 µg/mL
  SI: >710
[7]
  SI: 62
[7]; RVFV, Vero 76 cells, positive control
  EQ50: 14 µg/mL
[7]; Vero 76 cells without virus, positive control
  CC50: 870 µg/mL (≈ 3.56 mM)
TCRV
  CC50: 820 µg/mL (≈ 3.36 mM)
  EQ50: 13 µg/mL
  SI: 63
[8]
  CC50: > 1000 µg/mL
  SI50 (SI): >130
[9]
  CC50: > 1000 µg/mL
  SI50 (SI): >190
[10]
  CC50: > 1000 µg/mL
  SI50 (SI): >130

## CC(C)(C)C(=O)SCCOP(=O)(OCCSC(=O)C(C)(C)C)OCC1=CC(O)C(n2cnc3c(N)ncnc32)O1 (stereo not drawn) [SATE-ddhA]
[6]
  CC50: 170 µM
  SI50 (SI): 0
[11]
  Activity: MOD (key: NA (Not Active) SI50 = 0-3.9; MOD (Moderately Active) SI50 = 4-9.9; HI (Highly Active) SI50 = ≥10)
  CC50: 55.8 µM
  EC50: 12.9 µM
  EC90: 26.8 µM
  SI50: 4
  SI90: 2
  activity against EBV (in words): moderately active
[12]
  Activity: NA (key: NA (Not Active) SI50 = 0-3.9; MOD (Moderately Active) SI50 = 4-9.9; HI (Highly Active) SI50 = ≥10)
  CC50: 89.7 µM
  EC50: > 30 µM
  EC90: > 30 µM
  SI50: <3
  SI90: <3
[8]
  CC50: 180 µM
  SI50 (SI): 0
[13]
  CC50: 2 µM
  SI50 (SI): 0
[9]
  CC50: 58 µM
  SI50 (SI): 0
[14]
  CC50: 49 µM
  SI50 (SI): 0
[10]
  CC50: 180 µM
  SI50 (SI): 0
[15]
  SI50 (SI): 0
MERS-CoV (EMC)
  SI50 (SI): 0

## CC(C)(C)C(=O)SCCOP(=O)(OCCSC(=O)C(C)(C)C)OCC1=CC(O)C(n2ccc(N)nc2=O)O1 (stereo not drawn) [SATE-ddhC]
[6]
  CC50: 540 µM
  SI50 (SI): 0
[11]
  Activity: MOD (key: NA (Not Active) SI50 = 0-3.9; MOD (Moderately Active) SI50 = 4-9.9; HI (Highly Active) SI50 = ≥10)
  CC50: 124 µM
  EC50: 18.8 µM
  EC90: > 30 µM
  SI50: 7
  SI90: <4
  activity against EBV (in words): moderately active
[12]
  Activity: NA (key: NA (Not Active) SI50 = 0-3.9; MOD (Moderately Active) SI50 = 4-9.9; HI (Highly Active) SI50 = ≥10)
  CC50: > 150 µM
  EC50: 96 µM
  EC90: > 150 µM
  SI50: >2
  SI90: 1
[8]
  CC50: 550 µM
  SI50 (SI): 0
[13]
  CC50: > 100 µM
  SI50 (SI): 0
[9]
  CC50: 210 µM
  SI50 (SI): 0
[14]
  CC50: 410 µM
  SI50 (SI): 0
[10]
  CC50: > 1000 µM
  SI50 (SI): 0
[15]
  SI50 (SI): 0
MERS-CoV (EMC)
  SI50 (SI): 0

## CC(C)(C)C(=O)SCCOP(=O)(OCCSC(=O)C(C)(C)C)OCC1=CC(O)C(n2cnc3c(=O)[nH]c(N)nc32)O1 (stereo not drawn) [SATE-ddhG]
[6]
  CC50: > 1000 µM
  SI50 (SI): 0
[11]
  Activity: HI (key: NA (Not Active) SI50 = 0-3.9; MOD (Moderately Active) SI50 = 4-9.9; HI (Highly Active) SI50 = ≥10)
  CC50: 106 µM
  EC50: 2.98 µM
  EC90: > 30 µM
  SI50: 35
  SI90: <4
  activity against EBV (in words): highly active
[12]
  Activity: HI (key: NA (Not Active) SI50 = 0-3.9; LO (Slightly Active) SI50 = 4-9.9; MOD (Moderately Active) SI50 = 10-19.9; HI (Highly Active) SI50 = ≥20)
  CC50: > 150 µM
  EC50: 5.32 µM
  EC90: 5.86 µM
  SI50: >28
  SI90: >26
  activity against BK virus (in words): highly active
[8]
  CC50: > 1000 µM
  SI50 (SI): 0
[13]
  CC50: 83 µM
  SI50 (SI): 0
[9]
  CC50: 610 µM
  SI50 (SI): 0
[14]
  CC50: > 1000 µM
  SI50 (SI): 0
[10]
  CC50: > 1000 µM
  SI50 (SI): 0
[15]
  SI50 (SI): 0
MERS-CoV (EMC)
  SI50 (SI): 0

## CC(C)(C)C(=O)SCCOP(=O)(OCCSC(=O)C(C)(C)C)OCC1=CC(O)C(n2cnc3c(=O)[nH]cnc32)O1 (stereo not drawn) [SATE-ddhI]
[6]
  CC50: > 1000 µM
  SI50 (SI): 0
[11]
  Activity: MOD (key: NA (Not Active) SI50 = 0-3.9; MOD (Moderately Active) SI50 = 4-9.9; HI (Highly Active) SI50 = ≥10)
  CC50: > 150 µM
  EC50: 18.8 µM
  EC90: 81.9 µM
  SI50: >8
  SI90: >2
  activity against EBV (in words): moderately active
[12]
  Activity: NA (key: NA (Not Active) SI50 = 0-3.9; MOD (Moderately Active) SI50 = 4-9.9; HI (Highly Active) SI50 = ≥10)
  CC50: > 150 µM
  EC50: 115 µM
  EC90: > 150 µM
  SI50: >1
  SI90: 1
[8]
  CC50: > 1000 µM
  SI50 (SI): 0
[13]
  CC50: > 100 µM
  SI50 (SI): 0
[9]
  CC50: 900 µM
  SI50 (SI): 0
[14]
  CC50: 530 µM
  SI50 (SI): 0
[10]
  CC50: > 1000 µM
  SI50 (SI): 0
[15]
  SI50 (SI): 0
MERS-CoV (EMC)
  SI50 (SI): 0

## C[C@H](Cn1cnc2c(N)ncnc21)OCP(=O)(O)O [TNV, reference compound]
[3]
  CC50: > 150 µM
  EC50: > 150 µM
  EC90: > 150 µM
[11]
  CC50: > 150 µM
  EC50: 45.8 µM
  EC90: > 150 µM
  SI50: >3
  SI90: 1
[12]
  CC50: > 150 µM
  EC90: > 150 µM
  SI90: 1
JC virus (JCV)
  CC50: > 150 µM
  EC50: > 150 µM
  EC90: > 150 µM

## Nc1ccn([C@@H]2OC(CO)=C[C@H]2O)c(=O)n1 [ddhC, ddh cytidine]
enterovirus-68 (EV-68)
  activity against enterovirus EV-68 (in words): exhibits some activity
